ChEMBL document CHEMBL1130910, “Design of novel porphyrin-binding peptides based on antibody CDR” (Bioorg Med Chem Lett, 1998)

Legend:
[1] = Evaluated for binding constant with antigen meso-tetrakis (4-carboxyphenyl)porphyrin (TCPP) at 15% methanol content.
[2] = Evaluated for binding constant with antigen meso-tetrakis (4-carboxyphenyl)porphyrin (TCPP) at 30% methanol content.
[3] = Evaluated for binding constant with antigen meso-tetrakis (4-carboxyphenyl)porphyrin (TCPP) at 0% methanol content.
[4] = Evaluated for binding constant with antigen meso-tetrakis (4-carboxyphenyl)porphyrin (TCPP) at 40% methanol content.
[5] = Evaluated for binding constant with antigen meso-tetrakis (4-carboxyphenyl)porphyrin (TCPP) at 35% methanol content.
[6] = Evaluated for binding constant with antigen meso-tetrakis (4-carboxyphenyl)porphyrin (TCPP) at 20% methanol content.
[7] = Evaluated for binding constant with antigen meso-tetrakis (4-carboxyphenyl)porphyrin (TCPP) at 5% methanol content.

- Ka [1]: 260000 M⁻¹
- Ka [2]: 70000 M⁻¹
- Ka [3]: 680000 M⁻¹
- Ka [4]: 9700 M⁻¹
- Ka [5]: 15000 M⁻¹
- Ka [6]: 140000 M⁻¹
- Ka [7]: 420000 M⁻¹
SMILES: CC[C@H](C)[C@H](NC(=O)[C@H](CCCN=C(N)N)NC(=O)CNC(=O)Cc1ccc2ccc3cccc4ccc1c2c34)C(=O)N[C@H]1CSSC[C@H](C(=O)N[C@H](C(=O)N[C@@H](CCCCN)C(=O)N[C@@H](Cc2ccc(O)cc2)C(N)=O)[C@H](C)O)NC(=O)CNC(=O)[C@H](CC(N)=O)NC(=O)[C@@H](C)NC(=O)[C@@H]2CCCN2C1=O
